Calls of active or inactive are those of the source. No cut-off for these calls is given here.

The text below walks through data of ChEMBL document CHEMBL4007495, “Substrate and inhibitor specificity of kynurenine monooxygenase from Cytophaga hutchinsonii” (Bioorg Med Chem Lett, 2017).

The test system of experiment [1] is Cytophaga hutchinsonii. Description: Activity at Cytophaga hutchinsonii KMO assessed as NADPH consumption by UV/Vis spectrophotometer.
Experiment [2] concerns Cytophaga hutchinsonii. In words: Activity at Cytophaga hutchinsonii KMO at 0.2 mM after 30 mins by HPLC method.
Experiment [3] concerns Cytophaga hutchinsonii. Description: Activity at Cytophaga hutchinsonii KMO by ESI-LC/MS method.
The test system of experiment [4] is Cytophaga hutchinsonii. In words: Ratio of Kcat to Km for Cytophaga hutchinsonii KMO.
The nature of experiment [5]: Competitive inhibition of Cytophaga hutchinsonii KMO using 5-Br-kynurenine as substrate assessed as decrease in NADPH consumption by UV/Vis spectrophotometer.

In the case of `Nc1ccc(Br)cc1C(=O)C[C@H](N)C(=O)O`, the Michaelis constant (Km) with Cytophaga hutchinsonii [1] was 4.5 µM. Besides, the kcat in the experiment with Cytophaga hutchinsonii [1] turned out to be 0.6 s⁻¹. The outcome with Cytophaga hutchinsonii [2] and with Cytophaga hutchinsonii [3] was Active. Further, the kcat/Km in the experiment with Cytophaga hutchinsonii [4] amounted to 1.3 ×10⁵ /M/s.

Turning to `Nc1ccc(Cl)cc1C(=O)C[C@H](N)C(=O)O`, in the experiment on Cytophaga hutchinsonii [1], the Km was 2 µM and the turnover number (kcat) was determined as 0.8 s⁻¹. Further, in the experiment with Cytophaga hutchinsonii [4], the kcat/Km is 4 ×10⁵ /M/s.

Regarding `COc1ccc(C(=O)NCC(=O)O)cc1OC`, in experiment [5], the Ki is 1000 µM.

For `Cc1cc(Br)cc(C(=O)CC(N)C(=O)O)c1N` (stereo not drawn), the inhibition constant (Ki) in experiment [5] was 10.2 µM.

For `Nc1c(Cl)cc(Br)cc1C(=O)CC(N)C(=O)O` (stereo not drawn), the Ki in experiment [5] was determined as 11 µM.

With `Nc1c(Cl)cccc1C(=O)CC(N)C(=O)O` (stereo not drawn), the Ki in experiment [5] turned out to be 13.8 µM.

As to `Nc1c(Br)cc(Br)cc1C(=O)C[C@H](N)C(=O)O`, the Ki in experiment [5] was 1.5 µM.

Consider `Nc1ccccc1C(=O)C[C@H](N)C(=O)O`, for which, in the experiment on Cytophaga hutchinsonii [1], the Km was determined as 67 µM and the kcat came to 2 s⁻¹. In addition, the kcat/Km in the experiment with Cytophaga hutchinsonii [4] was 5.3 ×10⁴ /M/s.

For `O=C(O)CNC(=O)c1ccc(Cl)c(Cl)c1`, the Ki in experiment [5] worked out at 34 µM.

As for `Cc1cccc(C(=O)CC(N)C(=O)O)c1N` (stereo not drawn), the Ki in experiment [5] amounted to 8.6 µM.

By Km is commonly meant the concentration of substrate that gives half-maximal velocity. What is called kcat is the number of substrate molecules converted per active site and unit of time at saturation. By Ki is commonly meant a dissociation constant, usually derived from enzyme kinetics or from competition with a known ligand.
